Results from patent US20030032774A1, “Novel opioid peptides for the treatment of pain” (priority 1994, published 2003).
Like-named read-outs stand apart in the source and are kept apart here. Square brackets hold non-standard residues; d marks the D form. Peptide text beside a SMILES is read from it. Phe(4-NO2) = N[C@@H](Cc1ccc([N+](=O)[O-])cc1)C(=O)O; Phe(4-F) = N[C@@H](Cc1ccc(F)cc1)C(=O)O; 2Nal = N[C@@H](Cc1ccc2ccccc2c1)C(=O)O; Dmt = Cc1cc(O)cc(C)c1C[C@H](N)C(=O)O; dNle = CCCC[C@@H](N)C(=O)O; dNva = CCC[C@@H](N)C(=O)O

Columns and labels:
[1] = tested on: hot-plate response in mice; settings: in vivo; for Hot Plate: sc; for central analgesic effect in the mouse hot plate test: 100 mg/kg
[2] = tested on: PBQ induced writhing in mice; experiment: PBQ (phenylquinone)-induced writhing assay; format: in vivo, mouse; settings: for ED50(PBQ): mouse s.c.; for Writhing ED50: Table 2, mouse
Method: The test was performed on CD #1 male mice weighing between 18 and 22 g. Mice were weighed, marked and then injected, by the intraperitoneal route, with 0.3 ml/20 g by weight of a solution of phenylquinone at 0.02%. The contortions which appeared during a 15 minute time period following the injection were counted. The phenylquinone was injected at time intervals of 5, 20 or 60 minutes after administration of the compound (or medium, or standard) by subcutaneous route. It was injected at time intervals of 60 minutes after the administration of the compound (or medium, or standard) by oral route;
The 0.02% phenylquinone solution was prepared as follows: 20 mg of phenylquinone was dissolved in 5 ml ethanol 90% (Sigma). The dissolved phenylquinone was slowly added to 95 ml of distilled water continuously shaken and preheated (not boiled). The phenylquinone solution was, at all times protected from light and a new solution was prepared every day for the test. Each group usually contained 10 mice. If an antagonist, such as naloxone, was used, it was administered 20 minutes before the compound (or the medium, or the standard) by the intraperitoneal route.
Writhing assays were performed on CD#1 male mice weighing between […]. Assays were carried out as described in Example 3 and results are summarized below in Table 2.

δ receptor = δ receptor (Rattus norvegicus, UniProt P33533); experiment: biochemical
Method: (§1) PBQ (phenyl-ρ-benzoquinone) induced writhing in mice is an assessment of both central and peripheral analgesia (see Sigmund, et al., Proc. Soc. Exp. Biol. Med. 95:729 (1957)). Central analgesia is determined by the inhibition of a hot-plate response in mice (see, Wolfe, et al., J. Pharmacol. Exp. Ther. 80:300 (1944)). Assays measuring opioid receptor binding affinities for μ and δ receptors as well as the GPI assay were determined through experimental protocol set out in Schiller et al. (Biophys. Res. Commun. 85:1322 (1975)). The references by Sigmund, et al., Wolfe, et al., and Schiller, et al. are each hereby incorporated by reference.
(§2) Male Sprague-Dawley rats weighing between 350-450 g were sacrificed by inhalation of CO2. The rats were decapitated and the brains (minus the cerebellum) were removed, placed in ice-cold saline solution, and then homogenized in ice-cold 50 mM Tris buffer pH 7.4 (10 ml/brain). Membranes were centrifuged at 14000 rpm for 30 min. at 4° C. The pellets were re-suspended in approximately 6 ml/brain of ice-cold Tris buffer 50 mM pH 7.4 and stored at −78° C. until ready for use. Protein quantification of the brain homogenate was conducted according to protein assay kit purchased (Bio-Rad).
(§3) (^3H)-DAMGO and (^3H)-DAGLE were used as radioligands for the μ and δ receptors, respectively. Radioligand 50 μl, membranes 100 μl, and serially diluted test compound were incubated for 1 hr at 22° C. Nonspecific binding was determined using a 500 fold excess of unlabeled ligand in the presence of tracer and membranes. Free ligand was separated from bound by filtration through Whatman GF/B paper (presoaked in polyethylenimine 1% aqueous solution) and rinsing with ice-cold 50 mM Tris pH 7.4 using a Brandel cell harvester. The filters were dried and radioactivity was counted in a 24 well microplate in the presence of 500 μl scintillant per well. Radioactivity was measured using a Wallace 1450 Microbeta counter. Ki's for the various compounds were determined from the IC50 according to the Cheng and Prusoff equation.

μ receptor = target: T1, μ receptor (Rattus norvegicus, UniProt P33535); experiment: Radioligand binding assay, μ opioid receptor ((3H)-DAMGO, brain membranes); settings: for Binding Assay Kiδ Kiμ: selectivity ratio
T1 construct: the brains (minus the cerebellum) were removed, placed in ice-cold saline solution, and then homogenized; from tissue; host or cells: rat brain (minus cerebellum) membranes
Method: as §1, §2, §3

μ receptors = μ receptors (Cavia porcellus, UniProt P97266); experiment: Guinea Pig Ileum (GPI) assay, longitudinal muscle preparation
Method: The activity of the peptide compounds on μ receptors was determined using the Guinea Pig Ileum (GPI) assay (longitudinal muscle preparation) according to the procedures described in Schiller et al., Biophys. Res. Commun. 85:1322 (1975).

mice = experiment: Lethal effects / safety in mice; settings: 1-5 mg kg−1 i.v. bolus dose

Chain of μ receptors (P97266 whole entry, looked up): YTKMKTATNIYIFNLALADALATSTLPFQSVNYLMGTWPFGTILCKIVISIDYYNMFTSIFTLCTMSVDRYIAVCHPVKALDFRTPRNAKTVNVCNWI
T1 sequence (P33535 whole entry): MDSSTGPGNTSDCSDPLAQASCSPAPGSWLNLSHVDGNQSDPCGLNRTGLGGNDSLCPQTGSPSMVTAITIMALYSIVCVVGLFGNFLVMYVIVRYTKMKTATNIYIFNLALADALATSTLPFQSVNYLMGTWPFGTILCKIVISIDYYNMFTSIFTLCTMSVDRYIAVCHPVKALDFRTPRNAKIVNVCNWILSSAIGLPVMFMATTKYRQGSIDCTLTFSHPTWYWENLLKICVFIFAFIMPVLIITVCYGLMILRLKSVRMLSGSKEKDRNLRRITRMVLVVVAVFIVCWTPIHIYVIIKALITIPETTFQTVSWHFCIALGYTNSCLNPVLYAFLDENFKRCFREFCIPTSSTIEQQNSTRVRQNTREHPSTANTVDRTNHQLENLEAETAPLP
Chain of δ receptor (P33533 whole entry): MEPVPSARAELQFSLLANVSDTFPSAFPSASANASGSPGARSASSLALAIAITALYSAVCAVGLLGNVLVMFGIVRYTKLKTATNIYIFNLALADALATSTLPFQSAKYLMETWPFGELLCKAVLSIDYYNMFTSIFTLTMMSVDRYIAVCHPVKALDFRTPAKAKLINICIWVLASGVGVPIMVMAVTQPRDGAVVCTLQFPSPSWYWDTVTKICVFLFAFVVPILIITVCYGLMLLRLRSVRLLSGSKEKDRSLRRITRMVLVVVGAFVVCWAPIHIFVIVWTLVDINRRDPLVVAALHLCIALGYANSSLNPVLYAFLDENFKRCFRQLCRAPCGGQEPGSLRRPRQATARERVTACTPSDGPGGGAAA

| Molecule | Hot Plate ([1]; mouse) | ED50(PBQ) ([2]; 20 min post administration) | Writhing ED50 [2] | IC50 (μ receptors; GPI(IC50), Table 1) | Ki (μ receptor; Ki^μ, Table 1) | further results |
| --- | --- | --- | --- | --- | --- | --- |
| NC(=O)[C@H](Cc1ccccc1)NC(=O)[C@H](Cc1ccccc1)NC(=O)[C@@H](CS)NC(=O)[C@@H](N)Cc1ccc(O)cc1 [BCH2690, H-Tyr-D-Cys-Phe-Phe-NH2] (H-Y[dC]FF-NH2) | >100 mg/kg | 6.2 mg/kg | – | – | – | – |
| C[C@@H](NC(=O)[C@@H](N)Cc1ccc(O)cc1)C(=O)N[C@@H](Cc1ccc(F)cc1)C(=O)N[C@@H](Cc1ccccc1)C(N)=O [Compound #1C, H-Tyr-D-Ala-Phe(pF)-Phe-NH2] (H-Y[dA][Phe(4-F)]F-NH2) | – | – | 0.5 mg/kg | – | – | Ki (δ receptor): 201 nM; Ki (μ receptor; Binding Assay Kiμ, Table 2): 0.36 nM; Binding Assay Kiδ Kiμ (μ receptor; Table 2): 559 |
| H-Y[dS]FF-NH2 [BCH2463] | >100 mg/kg | 0.5 mg/kg | – | – | – | central analgesic effect in the mouse hot plate test [1]: No central analgesic effect was observed; reaction time in the hot plate test ([1]; mouse): about 9 seconds |
| C[C@@H](NC(=O)[C@@H](N)Cc1ccc(O)cc1)C(=O)N[C@@H](Cc1ccccc1)C(=O)N[C@@H](Cc1ccccc1)C(N)=O [BCH1774, H-Tyr-D-Ala-Phe-Phe-NH2] (H-Y[dA]FF-NH2) | >100 mg/kg | 1.4 mg/kg | 1.4 mg/kg | – | – | IC50 (μ receptors): 3 nM; duration of analgesic effect in writhing assay ([2]; 20 mg/kg s.c. BCH1774 vs 30 mg/kg s.c. BCH2463, FIG. 3): lasted longer than for BCH2463; Ki (δ receptor; read-out: Binding Assay Kiδ, Table 2): 626 nM; lethal effects upon mice (mice): exhibited lethal effects; Ki (μ receptor; Table 1, read-out: Ki^μ): 1.53 nM; Ki (μ receptor; Table 2, read-out: Binding Assay Kiμ): 1.53 nM; Binding Assay Kiδ Kiμ (μ receptor; Table 2): 409 |
| C[C@@H](NC(=O)[C@@H](N)Cc1ccc(O)cc1)C(=O)N[C@@H](Cc1ccccc1)C(=O)N[C@@H](Cc1ccc2ccccc2c1)C(N)=O [BCH757, H-Tyr-D-Ala-Phe-2′-Nal-NH2] (H-Y[dA]F[2Nal]-NH2) | – | – | – | 2 nM | 0.655 nM | ED50(PBQ) ([2]; 5 min.): 1.1 (5 min.) mg/kg |
| CCC[C@@H](NC(=O)[C@@H](N)Cc1ccc(O)cc1)C(=O)N[C@@H](Cc1ccccc1)C(=O)N[C@@H](Cc1ccccc1)C(N)=O [BCH2462, H-Tyr-D-Nva-Phe-Phe-NH2] (H-Y[dNva]FF-NH2) | >100 mg/kg | 2.7 mg/kg | – | – | – | central analgesic effect in the mouse hot plate test [1]: No central analgesic effect was observed; reaction time in the hot plate test ([1]; mouse): approximately 8 seconds; lethal effects upon mice (mice): exhibited lethal effects |
| C[C@@H](NC(=O)[C@@H](N)Cc1ccc(O)cc1)C(=O)N[C@@H](Cc1ccccc1)C(=O)N[C@@H](Cc1ccc([N+](=O)[O-])cc1)C(N)=O [BCH1776, H-Tyr-D-Ala-Phe-Phe(4-NO2)—NH2] (H-Y[dA]F[Phe(4-NO2)]-NH2) | – | 4 mg/kg | – | 8 nM | 0.509 nM | – |
| NC(=O)[C@H](Cc1ccccc1)NC(=O)[C@H](Cc1ccccc1)NC(=O)[C@@H](Cc1ccccc1)NC(=O)[C@@H](N)Cc1ccc(O)cc1 [BCH753, H-Tyr-D-Phe-Phe-Phe-NH2] (H-Y[dF]FF-NH2) | – | >20 mg/kg | – | 247 nM | 3.63 nM | – |
| CCCC[C@@H](NC(=O)[C@@H](N)Cc1ccc(O)cc1)C(=O)N[C@@H](Cc1ccccc1)C(=O)N[C@@H](Cc1ccccc1)C(N)=O [BCH755, H-Tyr-D-Nle-Phe-Phe-NH2] (H-Y[dNle]FF-NH2) | – | – | – | 15 nM | 0.968 nM | ED50(PBQ) ([2]; 5 min.): 2.5 (5 min.) mg/kg |
| C[C@@H](NC(=O)[C@@H](N)Cc1ccc(O)cc1)C(=O)N[C@@H](Cc1c[nH]c2ccccc12)C(=O)N[C@@H](Cc1ccccc1)C(N)=O [BCH1784, H-Tyr-D-Ala-Trp-Phe-NH2] (H-Y[dA]WF-NH2) | – | >20 mg/kg | – | 20 nM | 3.57 nM | – |
| N=C(N)NCCC[C@@H](NC(=O)[C@@H](N)Cc1ccc(O)cc1)C(=O)N[C@@H](Cc1ccc(F)cc1)C(=O)N[C@@H](Cc1ccc(F)cc1)C(N)=O [Compound #2B, H-Tyr-D-Arg-Phe(pF)-Phe(pF)-NH2] (H-Y[dR][Phe(4-F)][Phe(4-F)]-NH2) | – | – | 0.3 mg/kg | – | – | Ki (δ receptor): > 1000 nM; Ki (μ receptor; Binding Assay Kiμ, Table 2): 0.22 nM |
| C[C@@H](NC(=O)[C@@H](N)Cc1ccc(O)cc1)C(=O)N[C@@H](Cc1ccc(F)cc1)C(=O)N[C@@H](Cc1ccc(F)cc1)C(N)=O [Compound #1B, H-Tyr-D-Ala-Phe(pF)-Phe(pF)-NH2] (H-Y[dA][Phe(4-F)][Phe(4-F)]-NH2) | – | – | 0.2 mg/kg | – | – | IC50 (μ receptors; CPI IC50, Table 2): 0.12 nM; Ki (δ receptor): 200 nM; Ki (μ receptor; Binding Assay Kiμ, Table 2): 0.2 nM; Binding Assay Kiδ Kiμ (μ receptor; Table 2): 998 |
| N=C(N)NCCC[C@@H](NC(=O)[C@@H](N)Cc1ccc(O)cc1)C(=O)N[C@@H](Cc1ccccc1)C(=O)N[C@@H](Cc1ccccc1)C(N)=O [BCH2687, H-Tyr-D-Arg-Phe-Phe-NH2] (H-Y[dR]FF-NH2) | >100 mg/kg | – | 0.5 mg/kg | – | – | central analgesic effect in the mouse hot plate test [1]: No central analgesic effect was observed; reaction time in the hot plate test ([1]; mouse): approximately 8 seconds |
| C[C@@H](NC(=O)[C@@H](N)Cc1ccc(O)cc1)C(=O)N[C@@H](Cc1ccc([N+](=O)[O-])cc1)C(=O)N[C@@H](Cc1ccc([N+](=O)[O-])cc1)C(N)=O [BCH1777, H-Tyr-D-Ala-Phe(4-NO2)-Phe(4-NO2)—NH2] (H-Y[dA][Phe(4-NO2)][Phe(4-NO2)]-NH2) | – | >20 mg/kg | – | 6 nM | 0.826 nM | – |
| N=C(N)NCCC[C@@H](NC(=O)[C@@H](N)Cc1ccc(O)cc1)C(=O)N[C@@H](Cc1ccc(F)cc1)C(=O)N[C@@H](Cc1ccccc1)C(N)=O [Compound #2C, H-Tyr-D-Arg-Phe(pF)-Phe-NH2] (H-Y[dR][Phe(4-F)]F-NH2) | – | – | 0.3 mg/kg | – | – | IC50 (μ receptors; CPI IC50, Table 2): 1.52 nM; Ki (δ receptor): 952 nM; Ki (μ receptor; Binding Assay Kiμ, Table 2): 0.57 nM; Binding Assay Kiδ Kiμ (μ receptor; Table 2): 1671 |
| Cc1cc(O)cc(C)c1C[C@H](N)C(=O)N[C@H](CO)C(=O)N[C@@H](Cc1ccccc1)C(=O)N[C@@H](Cc1ccccc1)C(N)=O [BCH2813, H-Dmt-D-Ser-Phe-Phe-NH2] (H-[Dmt][dS]FF-NH2) | – | 0.15 mg/kg | – | – | – | dose at which found to act centrally in the hot plate test ([1]; mouse): about 40 mg/kg |
